Read-outs that look alike come from different tables or passages of the source.
Columns and labels:
[1] = Water retention capacity of skin flaps (stratum corneum samples soaked in active solution, dried, rehydrated; desorbed water quantified by GC-MS); details: 90% d'humidité relative
Description: Des échantillons de stratum corneum sont immergés pendant 24 heures dans une solution de l'actif à analyser. Ils sont ensuite séchés pendant 24 heures dans un dessicateur sur silicagel puis réhydratés pendant 48 heures dans une enceinte à 90% d'humidité relative.
Ces échantillons sont analysés après l'étape de séchage et après l'étape de réhydratation. La technique utilisée est la chromatographie en phase gazeuse couplée à la spectrométrie de masse.
Les échantillons de peau pesés sont placés dans un four chauffé à 100°C, la vapeur d'eau désorbée est entrainée par un gaz de balayage sec vers le chromatographe où elle sera détectée.
Un spectre est obtenu en sortie de l'appareil. L'eau désorbée est quantifiée par la mesure de l'aire du pic. Le spectromètre de masse couplé à la CPG permet de s'assurer que le composé désorbé et quantifié est bien de l'eau.
Cette technique allie donc une analyse qualitative à une analyse quantitative. Les résultats sont donnés en pourcentage d'eau retenue et permettent donc d'évaluer le pouvoir hygroscopique des produits.
Les résultats sont présentés sur la figure 1.

[2] = for effet hydratant: topical on forearm, 0-6 h
Description: La spectroscopie infrarouge in vivo est une technique non invasive, rapide et de grande sensibilité. Les molécules absorbent toutes différemment le rayonnement infrarouge. C'est en analysant leur spectre d'absorption que l'on peut retrouver la structure de la molécule.
En fonction de l'application de divers traitements, des liaisons entre l'eau apportée et la peau se créent et entraînent des modifications de certaines bandes d'absorption.
Ainsi seront analysés sur le spectre les pics suivants : • le pic d'absorption dû à l'élongation de la liaison OH de l'eau à 2100 cm-1. Les variations d'intensité de ce pic ne sont pas visibles à l'oeil nu mais elles sont significatives et donc enregistrées. • le pic d'absorption dû à l'élongation des liaisons amide I à 1640 cm-1. L'élongation de cette liaison se trouve modifiée lorsque des liaisons hydrogènes se créent par apport d'eau. • le pic d'absorption dû à l'élongation des liaisons amide II à 1540 cm-1. Ce pic n'est influencé par la présence d'eau que de façon négligeable; il est donc utilisé pour pondérer les deux pics précédents.
Les préparations cosmétiques à tester sont appliquées sur une zone délimitée de l'avant-bras. Une zone non traitée est conservée comme témoin.
Pour chaque spectre obtenu sont mesurés les rapports suivants : (amideI)/(amideII)appelé facteur d'hydratation (ou MF); (eau)/(amideII) [formula]
Ces rapports sont calculés aux temps 0, 1, 2, ..., 6 heures et les courbes suivantes sont tracées : MF témoin(t) - MF bras traité(t) = f(t) avec t, représentant le temps en heures.; (eau)/(amideII)témoin(t) -(eau)/(amideII)bras traité(t) = f(t) [formula]
L'allure de ces courbes est ensuite comparée. En effet, le pic des amides I pourrait être directement influencé par le produit appliqué alors que le pic à 2100 cm-1 n'est influencé que par l'eau.
Si les deux courbes obtenues évoluent dans le même sens, on peut considérer que la variation enregistrée rend bien compte de la fixation de l'eau sur la peau. Dans le cas contraire, il faut émettre des réserves sur les conclusions à apporter.
On teste par cette technique des crèmes contenant 5% et 13% de glycolate de guanidine, de formules suivantes (les pourcentages sont exprimés en p/p) :
Les effets sont comparés avec ceux de compositions contenant : • 15% glycérol • 5% glycérol • 13% lactate d'ammonium • 5% lactate d'ammonium.

Corynébactéries = details: bacteria involved in body odour (armpits)
[3] = test system: contaminations microbiennes; details: cream containing 13%, no other preservative
[4] = compared with lactate d'ammonium

Compound | eau retenue ([1]; skin treated with 13% solution) [%] | effet hydratant ([2]; cream containing 5% (formula B), figure 3) | durée de la différence d'hydratation ([2]; cream containing 5% vs 5% glycérol cream) [heures] | effet hydratant ([2]; cream containing 13% (formula A), figure 2) | durée de la différence d'hydratation ([2]; cream containing 13% vs placebo and 13% lactate d'ammonium cream) [heures] | activité bactéricide (Corynébactéries) | protection contre les contaminations microbiennes (conservateur) [3] | propriétés kératorégulatrices [4] | eau retenue ([1]; skin treated with 15% solution) [%]
CC(O)C(=O)O (stereo not shown) [lactate d'ammonium] | 135 | – | – | – | – | – | – | – | –
glycolate de guanidine | 300 | beaucoup plus hydratante que celle contenant 5% de glycérol | > 6 | beaucoup plus hydratante que le placebo et que la crème contenant 13% de lactate d'ammonium | > 6 | actif sur des bactéries impliquées dans la formation d'odeurs corporelles | s'auto-protège contre les contaminations microbiennes | supérieures à celles du lactate d'ammonium | –
OCC(O)CO [glycérol] | – | – | – | – | – | – | – | – | 125

From patent EP0804147B1, “DERMATO-COSMETOLOGIC COMPOSITION” (PIERRE FABRE DERMO-COSMETIQUE, priority 1994, dated 1995)
